Test results reported in the supplement of paper PMC10307832.

Legend:
Test in all cases: relative viability (nuclei count vs DMSO), 5 days (fraction); higher = more cells survive
EHT 1864 + Crizotinib = compound: C1COCCN1CC2=CC(=O)C(=CO2)OCCCCCSC3=C4C=CC(=CC4=NC=C3)C(F)(F)F [EHT 1864] + C[C@@H](Oc1cc(-c2cnn(C3CCNCC3)c2)cnc1N)c1c(Cl)ccc(F)c1Cl [Crizotinib] (partner 1 µM)
Method in brief: (§1)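 Values are medians from duplicate plates. Each reflects relative viability, defined as the nuclei count of treated wells over that of vehicle wells. Lung cancer cell lines in 1536-well plates were pin-tool dosed one day after seeding with one drug alone or with a fixed anchor-drug dose plus five library-drug doses (not always all listed) in √10 steps, then fixed, stained and imaged at 4× after 5 days.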

EHT 1864 + Pictilisib = compound: C1COCCN1CC2=CC(=O)C(=CO2)OCCCCCSC3=C4C=CC(=CC4=NC=C3)C(F)(F)F [EHT 1864] + CS(=O)(=O)N1CCN(Cc2cc3nc(-c4cccc5[nH]ncc45)nc(N4CCOCC4)c3s2)CC1 [Pictilisib] (partner 1 µM)
Method in brief: as §1

EHT 1864 + Dasatinib = compound: C1COCCN1CC2=CC(=O)C(=CO2)OCCCCCSC3=C4C=CC(=CC4=NC=C3)C(F)(F)F [EHT 1864] + Cc1nc(Nc2ncc(C(=O)Nc3c(C)cccc3Cl)s2)cc(N2CCN(CCO)CC2)n1 [Dasatinib] (partner 0.075 µM)
Method in brief: as §1

EHT 1864 + Vorinostat = compound: C1COCCN1CC2=CC(=O)C(=CO2)OCCCCCSC3=C4C=CC(=CC4=NC=C3)C(F)(F)F [EHT 1864] + O=C(CCCCCCC(=O)Nc1ccccc1)NO [Vorinostat] (partner 1 µM)
Method in brief: as §1

Cell Line | relative viability (EHT 1864 + Crizotinib; first compound 0.04 µM) | relative viability (EHT 1864 + Crizotinib; first compound 0.1265 µM) | relative viability (EHT 1864 + Crizotinib; first compound 0.4 µM) | relative viability (EHT 1864 + Crizotinib; first compound 1.265 µM) | relative viability (EHT 1864 + Crizotinib; first compound 4 µM) | relative viability (EHT 1864 + Pictilisib; first compound 0.04 µM) | relative viability (EHT 1864 + Pictilisib; first compound 0.1265 µM) | relative viability (EHT 1864 + Pictilisib; first compound 0.4 µM) | relative viability (EHT 1864 + Pictilisib; first compound 1.265 µM) | relative viability (EHT 1864 + Pictilisib; first compound 4 µM) | relative viability (EHT 1864 + Dasatinib; first compound 0.04 µM) | relative viability (EHT 1864 + Dasatinib; first compound 0.1265 µM) | relative viability (EHT 1864 + Dasatinib; first compound 0.4 µM) | relative viability (EHT 1864 + Dasatinib; first compound 1.265 µM) | relative viability (EHT 1864 + Dasatinib; first compound 4 µM) | relative viability (EHT 1864 + Vorinostat; first compound 0.04 µM) | relative viability (EHT 1864 + Vorinostat; first compound 0.1265 µM) | relative viability (EHT 1864 + Vorinostat; first compound 0.4 µM) | relative viability (EHT 1864 + Vorinostat; first compound 1.265 µM) | relative viability (EHT 1864 + Vorinostat; first compound 4 µM)
NCI-H1666 | 0.771 | 0.867 | 1.2 | 0.965 | 1.01 | 0.533 | 0.442 | 0.501 | 0.545 | 0.575 | 0.86 | 0.805 | 0.746 | 0.745 | 0.795 | 1.02 | 0.987 | 0.899 | 0.986 | 1.05
NCI-H1734 | 0.67 | 0.626 | 0.632 | 0.723 | 0.721 | 0.485 | 0.455 | 0.455 | 0.452 | 0.418 | 0.497 |  | 0.523 | 0.528 | 0.502 | 0.94 | 0.532 | 0.818 | 0.751 | 0.837
NCI-H1755 | 0.891 | 0.833 | 0.794 | 0.814 | 0.845 | 0.495 | 0.376 | 0.403 | 0.436 | 0.428 | 0.424 | 0.333 | 0.425 | 0.369 | 0.399 | 1 | 0.808 | 0.748 | 0.75 | 0.811
NCI-H1915 | 0.86 |  | 0.922 | 0.87 | 0.887 | 1.02 |  | 0.963 | 0.998 | 0.905 | 0.309 |  | 0.296 | 0.338 | 0.282 | 0.501 |  | 0.517 | 0.478 | 0.564
NCI-H1944 | 1.18 |  | 1.13 | 1.04 | 1.15 | 0.355 |  | 0.344 | 0.359 | 0.312 | 0.238 |  | 0.208 | 0.228 | 0.21 | 0.528 |  | 0.595 | 0.514 | 0.661
NCI-H1975 | 0.967 | 0.987 | 0.946 | 0.851 | 0.84 | 0.304 | 0.305 | 0.278 | 0.269 | 0.301 | 0.361 | 0.292 | 0.426 |  | 0.331 | 0.726 | 0.673 | 0.677 | 0.654 | 0.644
NCI-H1993 | 0.882 | 0.78 | 0.751 | 0.817 | 0.958 | 0.88 | 1.04 | 0.788 | 0.866 | 0.894 | 0.841 |  | 0.498 | 0.613 | 0.639 | 0.896 |  | 0.912 | 0.806 | 0.863
NCI-H2009 | 0.978 | 1.01 | 1.08 | 0.962 | 0.711 | 0.798 | 0.664 | 0.852 | 0.718 | 0.761 | 0.259 | 0.258 | 0.323 | 0.241 | 0.251 | 0.69 | 0.698 | 0.72 | 0.627 | 0.612
NCI-H2023 | 0.675 | 0.714 | 0.632 | 0.666 | 0.617 | 0.244 | 0.208 | 0.223 | 0.212 | 0.271 | 0.568 | 0.628 | 0.508 | 0.517 | 0.577 | 0.692 | 0.381 | 0.591 | 0.699 | 0.784
NCI-H2085 | 0.71 | 0.764 | 0.846 | 0.762 | 0.778 | 0.555 | 0.524 | 0.47 | 0.448 | 0.428 | 0.22 | 0.239 | 0.233 | 0.253 | 0.305 | 0.789 | 0.577 | 0.838 | 0.774 | 0.804
NCI-H2087 | 0.872 | 0.662 | 0.698 | 0.737 | 0.753 | 0.942 | 0.698 | 0.952 | 0.72 | 0.97 | 0.851 |  | 0.758 | 0.846 | 0.825 | 0.436 |  | 0.798 | 0.727 | 0.572
NCI-H2126 | 1.01 | 0.938 | 0.998 | 0.992 | 0.988 | 0.53 | 0.44 | 0.516 | 0.521 | 0.514 | 0.604 | 0.574 | 0.649 | 0.484 | 0.545 | 0.836 | 0.711 | 0.735 | 0.795 | 0.681
NCI-H2170 | 1.15 | 1.17 | 1.2 | 1.18 | 1.21 | 0.371 | 0.272 | 0.374 | 0.309 | 0.275 | 0.608 | 0.579 | 0.688 | 0.474 | 0.563 | 0.789 | 0.692 | 0.774 | 0.84 | 0.94
NCI-H2228 | 0.523 | 0.479 | 0.509 | 0.341 | 0.361 | 0.414 | 0.357 | 0.267 | 0.417 | 0.443 | 0.485 | 0.456 | 0.418 | 0.448 | 0.496 | 0.658 | 0.641 | 0.571 |  | 0.365
NCI-H2347 | 0.693 | 0.518 | 0.715 | 0.709 | 0.868 | 0.596 |  | 0.582 | 0.639 | 0.583 | 0.358 | 0.251 | 0.308 |  | 0.332 | 0.544 | 0.396 | 0.506 | 0.65 | 0.739
NCI-H2405 | 0.835 | 0.809 | 0.837 | 0.816 | 0.918 | 0.447 | 0.398 | 0.456 |  | 0.439 | 0.205 | 0.196 | 0.241 | 0.227 | 0.234 | 1.03 | 0.895 | 1.06 | 0.963 | 0.909
NCI-H3122 | 0.327 | 0.278 | 0.276 | 0.315 | 0.245 | 0.564 | 0.428 | 0.583 | 0.617 | 0.675 | 0.809 | 0.285 | 0.667 | 0.817 | 0.885 | 0.934 | 0.76 | 0.899 | 1.12 | 0.992
